A short description of assay [1]: enhancers of respiration in Yfh1-depleted yeast, dose response, Friedreich's ataxia, plus single-dose screen (AID 1465).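 Further: yeast depleted of Yfh1p frataxin homolog grown on glycerol needing respiration; WST-1 tetrazolium dye reduction as measure of cellular dehydrogenase metabolic activity.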 The class given is functional.
Assay [2] has as its target T1, Histone-lysine N-methyltransferase NSD2 (Homo sapiens, UniProt O96028).
T1 sequence (O96028 whole entry): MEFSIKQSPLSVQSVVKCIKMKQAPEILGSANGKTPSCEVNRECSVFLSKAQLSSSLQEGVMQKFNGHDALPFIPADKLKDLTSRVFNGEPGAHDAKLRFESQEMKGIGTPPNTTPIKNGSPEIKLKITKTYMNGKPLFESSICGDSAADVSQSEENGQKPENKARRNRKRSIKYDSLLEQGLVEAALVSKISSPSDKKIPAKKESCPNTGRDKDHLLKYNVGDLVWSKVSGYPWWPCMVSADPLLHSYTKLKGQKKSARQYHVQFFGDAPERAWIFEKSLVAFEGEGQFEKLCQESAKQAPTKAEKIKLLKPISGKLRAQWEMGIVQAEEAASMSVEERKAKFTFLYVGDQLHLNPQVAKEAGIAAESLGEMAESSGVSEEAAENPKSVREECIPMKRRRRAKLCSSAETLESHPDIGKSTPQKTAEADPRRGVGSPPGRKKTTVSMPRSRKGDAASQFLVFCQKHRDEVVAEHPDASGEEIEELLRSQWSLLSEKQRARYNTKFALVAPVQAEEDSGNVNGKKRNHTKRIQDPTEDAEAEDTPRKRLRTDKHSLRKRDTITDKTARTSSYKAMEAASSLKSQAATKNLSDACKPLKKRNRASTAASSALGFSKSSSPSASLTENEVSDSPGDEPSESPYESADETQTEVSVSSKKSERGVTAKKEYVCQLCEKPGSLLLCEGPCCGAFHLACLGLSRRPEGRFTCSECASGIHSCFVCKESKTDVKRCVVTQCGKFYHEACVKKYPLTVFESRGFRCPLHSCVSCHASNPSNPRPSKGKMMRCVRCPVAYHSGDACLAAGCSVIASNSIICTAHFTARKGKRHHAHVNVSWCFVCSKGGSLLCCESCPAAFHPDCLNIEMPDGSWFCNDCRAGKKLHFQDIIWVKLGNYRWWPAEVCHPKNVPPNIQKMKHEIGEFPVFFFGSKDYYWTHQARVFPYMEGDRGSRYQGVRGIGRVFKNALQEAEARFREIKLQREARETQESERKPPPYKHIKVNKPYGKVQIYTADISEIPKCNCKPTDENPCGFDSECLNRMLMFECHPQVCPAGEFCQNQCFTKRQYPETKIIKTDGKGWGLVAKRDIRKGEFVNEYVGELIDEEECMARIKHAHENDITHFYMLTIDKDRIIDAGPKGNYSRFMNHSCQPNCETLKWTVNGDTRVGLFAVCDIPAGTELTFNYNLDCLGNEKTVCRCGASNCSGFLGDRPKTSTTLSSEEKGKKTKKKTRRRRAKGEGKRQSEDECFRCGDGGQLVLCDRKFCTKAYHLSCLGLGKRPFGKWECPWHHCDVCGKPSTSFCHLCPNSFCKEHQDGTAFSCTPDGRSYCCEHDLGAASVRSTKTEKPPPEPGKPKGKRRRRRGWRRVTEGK
The class given is biochemical.

Assay [3] deals with T2, Sentrin-specific protease 8 (Homo sapiens, UniProt Q96LD8).
T2 sequence (Q96LD8 whole entry): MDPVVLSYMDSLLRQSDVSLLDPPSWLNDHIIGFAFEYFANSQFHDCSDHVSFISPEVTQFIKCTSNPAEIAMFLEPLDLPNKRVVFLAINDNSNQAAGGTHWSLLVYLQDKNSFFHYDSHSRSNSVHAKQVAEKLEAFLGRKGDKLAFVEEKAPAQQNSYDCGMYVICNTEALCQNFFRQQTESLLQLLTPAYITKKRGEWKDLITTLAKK
The class given is functional.

Assay [4] concerns the target T3, Mannose-6-phosphate isomerase (Homo sapiens, UniProt P34949).
T3 sequence (P34949 whole entry): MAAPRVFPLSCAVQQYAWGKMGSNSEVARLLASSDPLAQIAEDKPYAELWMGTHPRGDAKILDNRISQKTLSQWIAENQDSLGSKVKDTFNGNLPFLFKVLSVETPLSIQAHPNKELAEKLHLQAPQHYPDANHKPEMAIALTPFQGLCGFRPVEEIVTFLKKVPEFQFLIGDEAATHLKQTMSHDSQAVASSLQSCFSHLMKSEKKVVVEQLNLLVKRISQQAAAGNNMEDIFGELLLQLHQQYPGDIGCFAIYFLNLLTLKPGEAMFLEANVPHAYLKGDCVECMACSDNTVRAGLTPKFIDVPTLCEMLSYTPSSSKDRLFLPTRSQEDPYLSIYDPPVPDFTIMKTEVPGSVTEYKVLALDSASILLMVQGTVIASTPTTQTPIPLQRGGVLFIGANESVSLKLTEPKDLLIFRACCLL
As to the kind of experiment: human PMI inhibitors, high substrate, primary screen, biochemical, fluorescence intensity, high mannose 6-phosphate (AID 1220).

The next assay relates to BJ. As to the kind of experiment: cytotoxicity toward BJ-TERT-LT-ST fibroblasts, dose response, cell-based, RAS-independent, luminescence (AID 1935).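 Further: BJ fibroblasts immortalized with TERT plus LT and ST oncogenes.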 The class given is functional. Conditions: Homo sapiens.
A further assay relates to Jurkat. Description: SAR Analysis of small molecule inhibitors of T-cell specific antigen receptor-induced NF-kB activation in a Jurkat cell line using a luminescence assay - Set 2. [Related pubchem assays (depositor defined):AID435003, AID435012, AID465]. The class given is functional, cell-based. Particulars: Homo sapiens.
Another assay is described as follows: cells. The class given is functional, cell-based.
The nature of assay [5]: cytotoxicity toward DRD oncogenic fibroblasts, dose response, cell-based, non-viral oncogenic, luminescence (AID 1934). The class given is functional. Conditions: Homo sapiens.
A further assay relates to HEK293. As to the kind of experiment: SAR Analysis of small molecule inhibitors of T-cell specific antigen receptor-induced NF-kB activation in a HEK-293T cell line using a luminescence assay - Set 2. [Related pubchem assays (depositor defined):AID435003, AID435012, AID489026]. The class given is functional, cell-based. Particulars: Homo sapiens.
Assay [6] can be described thus: inhibitors of HIV Env-driven cell fusion, dose response, cherry-pick (AID 652057). The class given is functional, cell-based.
A short description of assay [7]: HepG2 cell cytotoxicity, dose response, cytotoxicity control for non-replicating M. tuberculosis project (AID 489018). The class given is functional. Conditions: Mycobacterium tuberculosis.

The values below come from ChEMBL document CHEMBL1201862, “PubChem BioAssay data set” (2004).

Structures are written as SMILES. Active and inactive are the calls of the source. Some results are limits rather than exact numbers.

Usually EC50 stands for the concentration giving half of the maximal effect. Usually AC50 stands for the midpoint of the concentration-response curve, whichever way the signal moves. Take `CCOC(=O)c1c(C)[nH]c2c1-c1ccccc1C(=O)C2=O`: the EC50 in [1] is > 100 µM (active). For the same compound, in assay [2], the AC50 was 1.33 µM (active).

What is called IC50 is the midpoint of a concentration-inhibition curve. As for `COc1ccc2c(c1)CCC(/C=N/c1ccc3c(c1)OCO3)=C2O`, the IC50 was 15.1 µM (active) in assay [3] and 15.6 µM (active) in [4].

Regarding `CC(=O)NC(c1ccc2ccccc2c1)c1ccc2cccnc2c1O` (centres undefined), the half-maximal effective concentration (EC50) in the assay on BJ was 6.07 µM (inconclusive); in “cells” it was > 350 µM (not active); in [5], 6.52 µM (active). Also, the concentration for half-maximal inhibition (IC50) was 1.89 µM (active) in the assay on Jurkat and 1.88 µM (active) with HEK293.

With `O=C(c1ccccc1)c1coc2c1C(=O)c1ccccc1C2=O`, the half-inhibitory concentration (IC50) in assay [3] is 17.4 µM (active).

For `CCc1ccc(Nc2n[n+](-c3ccccc3)c(-c3c(Cl)cccc3Cl)s2)cc1`, in assay [6], the half-maximal activity concentration (AC50) was 15.5 µM (active).

For `CCOC(=O)c1c(C)oc2c1c(/C=N/CCC(=O)O)c(O)c1ccccc12`, in assay [4], the IC50 is given as > 50 µM (not active). The AC50 in assay [2] was 1.87 µM (active).

For orientation: CC50 means the concentration that lowers cell viability or growth by half. For `CCOC(=O)C1=C(c2ccccc2)N=C(N)NC1c1ccc(OCc2ccc(Cl)cc2)c(OC)c1` (centres undefined), the CC50 in assay [7] was 13.1 µM (active).
